# Values of other authors in PMC7395068, “The evolution of strategies to minimise the risk of human drug-induced liver injury (DILI) in drug discovery and development” (Archives of Toxicology, 2020).
# Like-named read-outs stand apart in the source and are kept apart here.
# What was measured:
# HepG2 cells [1] = conditions: cited from earlier work
# [2] = system: THLE-Null and THLE-3A4 cells; conditions: In vitro Assay; ref Gustafsson 2014; cited from earlier work
# [3] = system: HepG2 cells, primary human hepatocytes; conditions: In vitro Assay; ref Garside 2014; cited from earlier work
# HepG2 cells [4] = conditions: In vitro Assay; ref O'Brien 2006; cited from earlier work
# [5] = cited from earlier work
# rBsep = conditions: In vitro Assay; ref Dawson 2012; cited from earlier work
# Upcyte human hepatocytes = conditions: In vitro Assay; ref Tolosa 2019; cited from earlier work
# human hepatocytes = conditions: In vitro Assay; ref Xu 2008; cited from earlier work
compound,measurement,setting,value
"CN1CCC(=C2c3ccccc3CC(=O)c3sccc32)CC1 [ketotifen, reference compound]",Structural based (HCI),"HepG2 cells [1]; In vitro Assay, ref Tolosa 2012",+VE
same,"DILI in vitro assay prediction, Tolosa (2012)","HepG2 cells [1]; Structural based (HCI), HepG2, ref Tolosa et al. 2012",false-positive
same,THLE-Null,[2],-VE
same,THLE-Null/3A4,[2],-VE
same,Cluster 1-6 +VE Assay,[3],+VE
same,Structural based (HCI),HepG2 cells [4],-VE
same,In vivo DILI,[5]; ref Dawson 2012,-VE
same,In vivo DILI,[5]; ref Garside 2014,+VE
same,In vivo DILI,[5]; ref Gustafsson 2014,+VE
same,In vivo DILI,[5]; ref O'Brien 2006,-VE
same,In vivo DILI,[5]; ref Tolosa 2012,-VE
same,In vivo DILI,[5]; ref Tolosa 2019,+VE
same,In vivo DILI,[5]; ref Xu 2008,-VE
same,Inhibition of rBsep cutoff<1& cmax u>.2,rBsep,-VE
same,Inhibition of rBsep cutoff<3,rBsep,-VE
same,Upcytes multi donor assay 14day data,Upcyte human hepatocytes,+VE
same,Structural based (HCI),human hepatocytes,-VE
